Reference: patent US10604529B2, “Fused imidazole compound having indoleamine 2,3-dioxygenase inhibitory activity” (SHENZHEN CHIPSCREEN BIOSCIENCES CO., LTD., priority 2016, dated 2020)

Key:
[1] = biological target: T1, Recombinant human IDO enzyme (IDO1 enzyme) (Homo sapiens, UniProt P14902); experiment: In vitro IDO enzymatic activity assay (kynurenine colour reaction, 492 nm); format: biochemical; settings: for IC50: recombinant human IDO enzyme; for inhibition at 0.2 µM: tested compound concentration 200 nM, recombinant human IDO1, read-out: IDO Enzymatic Inhibition Rate (%) (200 nM)
T1 construct: purchased BPS Bioscience, USA
T1 sequence (P14902 whole entry): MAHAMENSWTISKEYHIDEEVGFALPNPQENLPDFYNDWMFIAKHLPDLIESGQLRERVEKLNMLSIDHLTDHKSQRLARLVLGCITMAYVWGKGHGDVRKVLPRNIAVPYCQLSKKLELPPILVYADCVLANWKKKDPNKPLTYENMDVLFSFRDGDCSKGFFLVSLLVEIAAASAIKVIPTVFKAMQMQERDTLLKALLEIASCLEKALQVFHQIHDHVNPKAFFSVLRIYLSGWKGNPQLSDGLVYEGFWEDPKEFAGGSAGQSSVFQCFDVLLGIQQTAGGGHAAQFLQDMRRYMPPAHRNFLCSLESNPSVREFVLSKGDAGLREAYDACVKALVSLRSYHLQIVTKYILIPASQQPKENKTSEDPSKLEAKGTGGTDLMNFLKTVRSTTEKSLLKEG
Protocol: The basic principle of the in vitro IDO enzymatic activity detection is to use the IDO enzyme to metabolize the substrate L-tryptophan to produce the product kynurenine in an in vitro enzyme-catalyzed reaction system. The kynurenine is yellow in color reaction with p-dimethylaminobenzaldehyde in glacial acetic acid, and the absorbance value was measured at 492 nm on a microplate reader. The concentration of the product kynurenine in the sample is calculated by comparison to a standard curve of kynurenine with a known concentration.
Recombinant human IDO enzyme (IDO1 enzyme) was purchased from BPS Bioscience, USA.
(3) Control reactions were set up at the same time the detection reaction was carried out. including 0 inhibition positive control with no tested compound added and 0 enzyme negative control with no enzyme added. All tests were run in duplicate.
(4) After the enzymatic reaction was completed, 40 μl of a pre-formulated 30% (w/v) trichloroacetic acid solution was added, and reacted at 65° C. for 20 minutes, followed by centrifugation at 12,000 rpm for 15 minutes.
(5) 100 μl of the supernatant after centrifugation was pipetted and added to a 96-well plate. An equal volume of 2% p-dimethylaminobenzaldehyde in glacial acetic acid was added, well mixed, and allowed to stand at room temperature for 10 minutes.
(6) A microplate reader (ELX800NB) was used to detect the color signal of each well with a detection wavelength of 492 nm.
In addition, the enzymatic inhibition rates were calculated for the tested compounds of different concentration gradients, and then the enzymatic half maximal inhibitory concentration (IC50) was calculated using the IC50 calculator.
According to the above-mentioned method of experiment, the compound of the present disclosure was subjected to an in vitro IDO enzymatic IC50 assay using NLG919 as a positive control compound.

[2] = biological target: T2, IFN-γ-induced IDO enzyme in HeLa cells (Homo sapiens, UniProt P14902); experiment: Detection of IDO inhibitory activity at the cellular level (IFN-γ-induced HeLa cells); format: cell-based; settings: 48 hours; for EC50: human IFN-γ induced, read-out: IDO EC50 (nM) at the Cellular Level (column head: IC50 (nM)); for inhibition at 1 µM: tested compound 1 μM, human IFN-γ 50 ng/ml, read-out: IDO Inhibitory Rate (%) (1 μM)
T2 construct: HeLa cells are human cervical cancer cell lines and can up-regulate the expression of endogenous IDO enzymes; endogenous in cells; host or cells: HeLa cells stimulated with human IFN-γ
T2 sequence (P14902 whole entry): as above
Source text: In the present disclosure, IFN-γ-induced IDO enzyme expression in HeLa cells were used as a model to detect the IDO enzymatic inhibitory activity of the compound at the cellular level. HeLa cells are human cervical cancer cell lines and can up-regulate the expression of endogenous IDO enzymes under the induction of human IFN-γ. The cell supernatant can be subjected to detection of the enzyme-catalyzed product kynurenine by adding the substrate L-tryptophan to the cell culture solution. […] Recombinant human IFN-γ cytokine purchased from Sangon Biotech, Phenol red-free DMEM for cell culture purchased from Gibco. […] The cells were further cultured for 48 hours and detected. (2) 200 μl of the supernatant from the culture well was pipetted, 40 μl of a pre-formulated 30% (w/v) trichloroacetic acid solution was added, allowed to react at 65° C. for 20 minutes, and then centrifuged at 12,000 rpm for 15 minutes. (3) 100 μl of the supernatant after centrifugation was pipetted and added into a 96-well plate, an equal volume of 2% p-dimethylaminobenzaldehyde in glacial acetic acid was added, and they were mixed well and allowed to stand at room temperature for 10 minutes. (4) A microplate reader (ELX800NB) was used to detect the color signal of each well, and the detection wavelength was 492 nm.

Row | IC50 [1] [nM] | inhibition at 0.2 µM [1] [%] | EC50 [2] [nM] | inhibition at 1 µM [2] [%] | Compound
1 | 159 | 83 | 169 | 92 | CN(CC(=O)N1CCC(C(O)CC2c3ccccc3-c3cncn32)CC1)c1ccccc1 (stereo not drawn) [Example 59, 1-(4-(1-hydroxy-2-(5H-imidazo[5,1-a]isoindol-5-yl)ethyl)piperidin-1-yl)-2-(methyl(phenyl)amino)ethyl-1-one]
2 | – | 90 | – | 99 | CN(CC(=O)N1CCC(C(O)CC2c3ccccc3-c3cncn32)CC1)c1cccc(Cl)c1 (stereo not drawn) [Example 63]
3 | – | 87 | – | 98 | CN(CC(=O)N1CCC(C(O)CC2c3ccccc3-c3cncn32)CC1)c1ccc(F)c(Cl)c1 (stereo not drawn) [Example 68, 2-((3-chloro-4-fluorophenyl)(methyl)amino)-1-(4-(1-hydroxy-2-(5H-imidazo[5,1-a]isoindol-5-yl)ethyl)piperidin-1-yl)ethyl-1-one]
4 | – | 73 | – | 91 | CN(CC(=O)N1CCC(C(O)CC2c3ccccc3-c3cncn32)CC1)c1ccc(F)cc1 (stereo not drawn) [Example 72, 2-((4-fluorophenyl)(methyl)amino)-1-(4-(1-hydroxy-2-(5H-imidazo[5,1-a]isoindol-5-yl)ethyl)piperidin-1-yl)ethyl-1-one]
5 | – | 82 | – | 95 | Cc1ccc(N(C)CC(=O)N2CCC(C(O)CC3c4ccccc4-c4cncn43)CC2)cc1C (stereo not drawn) [Example 77, 2-((3,4-dimethylphenyl)(methyl)amino)-1-(4-(1-hydroxy-2-(5H-imidazo[5,1-a]isoindol-5-yl)ethyl)piperidin-1-yl)ethyl-1-one]
6 | – | 85 | – | 94 | CCN(CC(=O)N1CCC(C(O)CC2c3ccccc3-c3cncn32)CC1)c1ccccc1 (stereo not drawn) [Example 81, 2-(ethyl(phenyl)amino)-1-(4-(1-hydroxy-2-(5H-imidazo[5,1-a]isoindol-5-yl)ethyl)piperidin-1-yl)ethyl-1-one]
7 | 144 | 65 | 312 | 84 | O=C(CNc1ccccc1)N1CCC(C(O)CC2c3ccccc3-c3cncn32)CC1 (stereo not drawn) [Example 85, 1-(4-(1-hydroxy-2-(5H-imidazo[5,1-a]isoindol-5-yl)ethyl)piperidin-1-yl)-2-(phenylamino)ethyl-1-one]
8 | – | 68 | – | 85 | CN(CC(=O)N1CCC(C(O)CC2c3ccccc3-c3cncn32)CC1)c1ccc(C(F)(F)F)cc1 (stereo not drawn) [Example 89, 1-(4-(1-hydroxy-2-(5H-imidazo[5,1-a]isoindol-5-yl)ethyl)piperidin-1-yl)-2-(methyl(4-trifluoromethylphenyl)amino)ethyl-1-one]
9 | – | 84 | – | 98 | CN(CC(=O)N1CCC(C(O)CC2c3ccccc3-c3cncn32)CC1)c1cccc(C(F)(F)F)c1 (stereo not drawn) [Example 94, 1-(4-(1-hydroxy-2-(5H-imidazo[5,1-a]isoindol-5-yl)ethyl)piperidin-1-yl)-2-(methyl(3-trifluoromethylphenyl)amino)ethyl-1-one]
10 | – | – | – | 68 | CN(CC(=O)N1CCC(C(O)CC2c3ccccc3-c3cncn32)CC1)c1ccccn1 (stereo not drawn) [Example 109, 1-(4-(1-hydroxy-2-(5H-imidazo[5,1-a]isoindol-5-yl)ethyl)piperidin-1-yl)-2-(methyl(pyridin-2-yl)amino)ethyl-1-one]
11 | – | – | – | 79 | CN(CC(=O)N1CCC(C(O)CC2c3ccccc3-c3cncn32)CC1)c1ccc2c(c1)oc1ccccc12 (stereo not drawn) [Example 124, 2-(dibenzo[b,d]furan-3-yl(methyl)amino)-1-(4-(1-hydroxy-2(5H-imidazo[5,1-a]isoindol-5-yl)ethyl)piperidin-1-yl)ethyl-1-one]

More lines, now with the values behind:

Row | Compound | IC50 [1] [nM] | inhibition at 0.2 µM [1] [%] | EC50 [2] [nM] | inhibition at 1 µM [2] [%]
12 | O=C(COc1ccccc1)N1CCC(C(O)CC2c3ccccc3-c3cncn32)CC1 (stereo not drawn) [Example 7, 1-(4-(1-hydroxy-2-(5H-imidazo[5,1-a]isoindol-5-yl)ethyl)piperidin-1-yl)-2-phenoxyethyl-1-one] | 55 | 85 | 154 | 93
13 | O=C(COc1ccc2[nH]c3ccccc3c2c1)N1CCC(C(O)CC2c3ccccc3-c3cncn32)CC1 (stereo not drawn) [Example 17, 2-((9H-carbazol-3-yl)oxy)-1-(4-(1-hydroxy-2-(5H-imidazo[5,1-a]isoindol-5-yl)ethyl)piperidin-1-yl)ethyl-1-one] | – | 85 | – | 93
14 | O=C(COc1ccc2ncccc2c1)N1CCC(C(O)CC2c3ccccc3-c3cncn32)CC1 (stereo not drawn) [Example 23, 1-(4-(1-hydroxy-2-(5H-imidazo[5,1-a]isoindol-5-yl)ethyl)piperidin-1-yl)-2-(quinolin-6-yloxy)ethyl-1-one] | – | 80 | – | 77
15 | O=C(COc1ccc2[nH]ccc2c1)N1CCC(C(O)CC2c3ccccc3-c3cncn32)CC1 (stereo not drawn) [Example 26, 2-((1H-indol-5-yl)oxy)-1-(4-(1-hydroxy-2-(5H-imidazo[5,1-a]isoindol-5-yl)ethyl)piperidin-1-yl)-ethyl-1-one] | – | 89 | – | 92
16 | O=C(COc1ncnc2[nH]cnc12)N1CCC(C(O)CC2c3ccccc3-c3cncn32)CC1 (stereo not drawn) [Example 33, 2-((7H-purin-6-yl)oxy)-1-(4-(1-hydroxy-2-(5H-imidazo[5,1-a]isoindol-5-yl)ethyl)piperidin-1-yl)ethyl-1-one] | – | 70 | – | –
17 | O=C(COc1nc2ccccc2o1)N1CCC(C(O)CC2c3ccccc3-c3cncn32)CC1 (stereo not drawn) [Example 37, 2-(benzo[d]oxazolin-2-yloxy)-1-(4-(1-hydroxy-2-(5H-imidazo[5,1-a]isoindol-5-yl)ethyl)piperidin-1-yl)ethyl-1-one] | – | 83 | – | 97
18 | O=C(COc1ccc(F)c(Cl)c1)N1CCC(C(O)CC2c3ccccc3-c3cncn32)CC1 (stereo not drawn) [Example 39, 2-(3-chloro-4-fluorophenoxy)-1-(4-(1-hydroxy-2-(5H-imidazo[5,1-a]isoindol-5-yl)ethyl)piperidin-1-yl)ethyl-1-one] | – | 90 | – | 98
19 | O=C(COc1cccc(Cl)c1)N1CCC(C(O)CC2c3ccccc3-c3cncn32)CC1 (stereo not drawn) [Example 41, 2-(3-chlorophenoxy)-1-(4-(1-hydroxy-2-(5H-imidazo[5,1-a]isoindol-5-yl)ethyl)piperidin-1-yl)ethyl-1-one] | – | 92 | – | 99
20 | O=C(COc1ccc(F)cc1)N1CCC(C(O)CC2c3ccccc3-c3cncn32)CC1 (stereo not drawn) [Example 43, 2-(4-fluorophenoxy)-1-(4-(1-hydroxy-2-(5H-imidazo[5,1-a]isoindol-5-yl)ethyl)piperidin-1-yl)ethyl-1-one] | – | 83 | – | 89
21 | Cc1ccc(OCC(=O)N2CCC(C(O)CC3c4ccccc4-c4cncn43)CC2)cc1C (stereo not drawn) [Example 46, 2-(3,4-dimethylphenoxy)-1-(4-(1-hydroxy-2-(5H-imidazo[5,1-a]isoindol-5-yl)ethyl)piperidin-1-yl)ethyl-1-one] | – | 83 | – | 93
22 | O=C(COc1cccc(C(F)(F)F)c1)N1CCC(C(O)CC2c3ccccc3-c3cncn32)CC1 (stereo not drawn) [Example 48, 2-(3-trifluoromethylphenoxy)-1-(4-(1-hydroxy-2-(5H-imidazo[5,1-a]isoindol-5-yl)ethyl)piperidin-1-yl)ethyl-1-one] | – | 89 | – | 99
23 | O=C(COC1CCCCC1)N1CCC(C(O)CC2c3ccccc3-c3cncn32)CC1 (stereo not drawn) [Example 50, 2-(cyclohexyloxy)-1-(4-(1-hydroxy-2-(5H-imidazo[5,1-a]isoindol-5-yl)ethyl)piperidin-1-yl)ethyl-1-one] | – | 66 | – | 69
24 | O=C(COc1ccc2oc3ccccc3c2c1)N1CCC(C(O)CC2c3ccccc3-c3cncn32)CC1 (stereo not drawn) [Example 57, 2-(dibenzo[b,d]furan-2-yloxy)-1-(4-(1-hydroxy-2-(5H-imidazo[5,1-a]isoindol-5-yl)ethyl)piperidin-1-yl)ethyl-1-one] | – | 88 | – | 91
